This passage reports mortality results from patent US20170015649A1, “N-Thio-anthranilamid compounds and their use as pesticides” (BASF SE, priority 2005, published 2017).

Molecules are shown by their SMILES. Read-outs that look alike come from different tables or passages of the source.

Test [1] relates to Southern Armyworm (Spodoptera eridania), 2nd Instar Larvae. The test is described as follows: whole plant or invertebrate. The format is in vivo. The settings on record: in Phaseolus lunatus, foliar, 120 h. Here is the method: The active compounds were formulated for testing the activity against insects and arachnids as a 10.000 ppm solution in a mixture of 35% acetone and water, which was diluted with water, if needed.
A Sieva lima bean leaf was dipped in the test solution and allowed to dry. The leaf was then placed in a petri dish containing a filter paper on the bottom and ten 2nd instar caterpillars. At 5 days, observations are made of mortality and reduced feeding.

Test [2] relates to Diamond Back Moth (Plutella xylostella). The test is described as follows: Activity against diamond back moth, cabbage leaf disk dip. The format is in vivo. The conditions noted are these: foliar. The protocol: The active compounds were formulated in 50:50 acetone:water and 0.1% (vol/vol) Alkamuls EL 620 surfactant. A 6 cm leaf disk of cabbage leaves was dipped in the test solution for 3 seconds and allowed to air dry in a Petri plate lined with moist filter paper. The leaf disk was inoculated with 10 third instar larvae and kept at 25-27° C. and 50-60% humidity for 3 days. Mortality was assessed after 72 h of treatment.

The subject of test [3] is Vetch Aphid (Megoura viciae). In words: Activity against vetch aphid, bean leaf disks. It counts as in vivo. The conditions noted are these: foliar, 144 h. The protocol:
Bean leaf disks were placed into microtiterplates filled with 0.8% agar-agar and 2.5 ppm OPUS™. The leaf disks were sprayed with 2.5 μl of the test solution and 5 to 8 adult aphids were placed into the microtiterplates which were then closed and kept at 22-24° C. and 35-45% under fluorescent light for 6 days. Mortality was assessed on the basis of vital, reproduced aphids. Tests were replicated 2 times.

Test [4] concerns Tobacco Budworm (Heliothis virescens). In words: whole plant or invertebrate. The settings on record: 144 h.
Test [5] has as its system Boll Weevil (Anthonomus grandis). In words: Activity against boll weevil, eggs in microtiterplates. The format is in vivo. The settings on record: eggs sprayed with 20 μl test solution, 3 to 5 days. Here is the method:
10 to 15 eggs were placed into microtiterplates filled with 2% agar-agar in water and 300 ppm formaline. […] Mortality was assessed on the basis of the remaining unhatched eggs or larvae on the agar surface and/or quantity and depth of the digging channels caused by the hatched larvae. Tests were replicated 2 times.

Test [6] relates to Cotton Aphid (Aphis gossypii). In words: Activity against cotton aphid, cotton cotyledon dip. It counts as in vivo. The settings on record: 120 h, cotyledons dipped, after 5 days. The text has this:
(§1) The active compounds were formulated in 50:50 acetone:water and 100 ppm Kinetic™ surfactant.
Cotton plants at the cotyledon stage (one plant per pot) were infested by placing a heavily infested leaf from the main colony on top of each cotyledon. The aphids were allowed to transfer to the host plant overnight, and the leaf used to transfer the aphids was removed. The cotyledons were dipped in the test solution and allowed to dry. After 5 days, mortality counts were made.

Test [7] has as its system Silverleaf Whitefly (Bemisia argentifolii). In words: Activity against silverleaf whitefly, cotton cotyledon dip. The conditions noted are these: 72 h, cotyledons dipped, adults, 3 days after treatment. It counts as in vivo. Here is the method:
as §1
Selected cotton plants were grown to the cotyledon state (one plant per pot). The cotyledons were dipped into the test solution to provide complete coverage of the foliage and placed in a well-vented area to dry. Each pot with treated seedling was placed in a plastic cup and 10 to 12 whitefly adults (approximately 3-5 day old) were introduced. The insects were collected using an aspirator and an 0.6 cm, non-toxic Tygon™ tubing (R-3603) connected to a barrier pipette tip. The tip, containing the collected insects, was then gently inserted into the soil containing the treated plant, allowing insects to crawl out of the tip to reach the foliage for feeding. The cups were covered with a reusable screened lid (150 micron mesh polyester screen PeCap from Tetko Inc). Test plants were maintained in the holding room at about 25° C. and 20-40% relative humidity for 3 days avoiding direct exposure to the fluorescent light (24 hour photoperiod) to prevent trapping of heat inside the cup. Mortality was assessed 3 days after treatment of the plants.

Test [8] has as its system Mediterranean Fruitfly (Ceratitis capitata). The test is described as follows: Activity against Mediterranean fruitfly, eggs in microtiterplates. The settings on record: 144 h, eggs sprayed with 5 μl test solution, 6 days. It counts as in vivo. The protocol: 50 to 80 eggs were placed into microtiterplates filled with 0.5% agar-agar and 14% diet in water. […] Mortality was assessed on the basis of the agility of the hatched larvae. Tests were replicated 2 times.

The mark [9] stands for this setting: 2500 ppm, leaf disks sprayed with 2.5 μl, 6 days, compared to 0% mortality of untreated controls, read-out: mortality.
Where [10] appears, read: 300 ppm, leaf dipped, at 5 days, read-out: mortality.
Setting [11] is: 300 ppm, leaf disk dipped, third instar larvae, after 72 h, read-out: mortality.

As to `CCN(C)S(=O)(=O)NC(=O)c1cc(Cl)cc(C)c1NC(=O)c1cc(Br)nn1-c1ncccc1Cl` [I.1-7], the mortality at 300 ppm in test [1] and in test [2] (72 h) was over 75% each time.

Take `Cc1cc(Cl)cc(C(=O)NS(=O)(=O)N(C)C)c1NC(=O)c1cc(Br)nn1-c1ncccc1Cl` [I.1-9]: the mortality at 300 ppm in test [1] and in test [2] (72 h) was over 75% throughout.

With `CCN(C)S(=O)(=O)NC(=O)c1cccc(C)c1NC(=O)c1cc(Br)nn1-c1ncccc1Cl` [I.1-27], the mortality at 300 ppm in test [1] and in test [2] (72 h) was over 75% throughout.

Consider `Cc1cccc(C(=O)NS(=O)(=O)N(C)C)c1NC(=O)c1cc(Br)nn1-c1ncccc1Cl` [I.1-30], for which the mortality (as a rule, the percentage killed) at 300 ppm in test [1] is over 75%.

For `CCN(C)S(=O)(=O)NC(=O)c1cc(Cl)cc(C)c1NC(=O)c1cc(C(F)(F)F)nn1-c1ncccc1Cl` [I.1-45], the mortality at 300 ppm in test [1] and in test [2] (72 h) was over 75% each time.

Take `Cc1cc(Cl)cc(C(=O)NS(=O)(=O)N(C)C)c1NC(=O)c1cc(C(F)(F)F)nn1-c1ncccc1Cl` [I.1-47]: the mortality at 300 ppm in test [1] and in test [2] (72 h) was over 75% in each case.

As to `CCN(CC)S(=O)(=O)NC(=O)c1cccc(C)c1NC(=O)c1cc(C(F)(F)F)nn1-c1ncccc1Cl` [I.1-53], the mortality at 2500 ppm in test [3] and in test [4] was over 75% in each case. Also, the mortality at 300 ppm in test [1] is over 75%.

For the molecule `CCN(C)S(=O)(=O)NC(=O)c1cccc(C)c1NC(=O)c1cc(C(F)(F)F)nn1-c1ncccc1Cl` [I.1-61], the mortality at 300 ppm in test [1] and in test [2] (72 h) was over 75% throughout.

With `CCS(CC)=NC(=O)c1cc(Cl)cc(C)c1NC(=O)c1cc(Br)nn1-c1ncccc1Cl` [I.3-3], the mortality at 2500 ppm in test [5], in test [3] (setting [9]) and in test [4] was over 75% each time. Also, the mortality at 300 ppm in test [6] is over 50%; in test [1] (setting [10]), over 75%; in test [7], over 90%.

With `Cc1cc(Cl)cc(C(=O)N=S(C)C)c1NC(=O)c1cc(C(F)(F)F)nn1-c1ncccc1Cl` [I.3-8], the mortality at 2500 ppm in test [5], in test [8], in test [3] (setting [9]) and in test [4] was over 75% in each case. In addition, the mortality at 300 ppm in test [6] is over 50%; in test [1] (setting [10]) it was over 75%; in test [7] it was over 90%; in test [2] (setting [11]), over 75%.

With `Cc1cc(I)cc(C(=O)N=S(C)C)c1NC(=O)c1cc(Br)nn1-c1ncccc1Cl` [I.3-22], the mortality at 2500 ppm in test [5], in test [8], in test [3] (setting [9]) and in test [4] was over 75% throughout. The mortality at 300 ppm in test [6] is over 50%; in test [1] (setting [10]), over 75%; in test [7], over 90%; in test [2] (setting [11]), over 75%.

Consider `Cc1cc(I)cc(C(=O)N=S(C)C)c1NC(=O)c1cc(C(F)(F)F)nn1-c1ncccc1Cl` [I.3-23], for which the mortality at 2500 ppm in test [5], in test [8], in test [3] (setting [9]) and in test [4] was over 75% each time. Moreover, the mortality at 300 ppm in test [6] is over 50%; in test [1] (setting [10]), over 75%; in test [7], over 90%; in test [2] (setting [11]) it was over 75%.

On to `Cc1cccc(C(=O)N=S(C)C)c1NC(=O)c1cc(C(F)(F)F)nn1-c1ncccc1Cl` [I.3-24], for which the mortality at 2500 ppm in test [5], in test [8], in test [3] (setting [9]) and in test [4] was over 75% each time. For the same molecule, the mortality at 300 ppm is over 50% in test [6], over 75% in test [1] (setting [10]) and over 75% in test [2] (setting [11]).

On to `CCS(C)=NC(=O)c1cc(Cl)cc(C)c1NC(=O)c1cc(Br)nn1-c1ncccc1Cl` (stereo not drawn) [I.3-25], for which the mortality at 2500 ppm in test [5], in test [8], in test [3] (setting [9]) and in test [4] was over 75% each time. The mortality at 300 ppm was over 50% in test [6], over 75% in test [1] (setting [10]), over 90% in test [7] and over 75% in test [2] (setting [11]).

As to `CCS(C)=NC(=O)c1cccc(C)c1NC(=O)c1cc(Br)nn1-c1ncccc1Cl` (stereo not drawn) [I.3-26], the mortality at 2500 ppm in test [5], in test [8], in test [3] (setting [9]) and in test [4] was over 75% throughout. Also, the mortality at 300 ppm in test [6] was over 50%; in test [1] (setting [10]) it was over 75%; in test [7], over 90%; in test [2] (setting [11]), over 75%.

Take `CCS(C)=NC(=O)c1cc(I)cc(C)c1NC(=O)c1cc(Br)nn1-c1ncccc1Cl` (stereo not drawn) [I.3-27]: the mortality at 2500 ppm in test [5], in test [8], in test [3] (setting [9]) and in test [4] was over 75% each time. Also, the mortality at 300 ppm is over 50% in test [6], over 75% in test [1] (setting [10]), over 90% in test [7] and over 75% in test [2] (setting [11]).

`CCS(C)=NC(=O)c1cc(Cl)cc(C)c1NC(=O)c1cc(C(F)(F)F)nn1-c1ncccc1Cl` (stereo not drawn) [I.3-28]: the mortality at 2500 ppm in test [5], in test [8], in test [3] (setting [9]) and in test [4] was over 75% in each case. Further, the mortality at 300 ppm in test [6] was over 50%; in test [1] (setting [10]), over 75%; in test [7], over 90%; in test [2] (setting [11]), over 75%.

As to `CCS(C)=NC(=O)c1cccc(C)c1NC(=O)c1cc(C(F)(F)F)nn1-c1ncccc1Cl` (stereo not drawn) [I.3-29], the mortality at 2500 ppm in test [5], in test [8], in test [3] (setting [9]) and in test [4] was over 75% each time. In addition, the mortality at 300 ppm in test [6] was over 50%; in test [1] (setting [10]) it was over 75%; in test [2] (setting [11]) it was over 75%.

`Cc1cc(C#N)cc(C(=O)N=S(C)C)c1NC(=O)c1cc(C(F)(F)F)nn1-c1ncccc1Cl` [I.3-55]: the mortality at 2500 ppm in test [5], in test [8], in test [3] (setting [9]) and in test [4] was over 75% each time. Also, the mortality at 300 ppm in test [2] (setting [11]) was over 75%.

On to `Cc1cc(C#N)cc(C(=O)N=S(C)C)c1NC(=O)c1cc(Br)nn1-c1ncccc1Cl` [I.3-60], for which, in test [2] (setting [11]), the mortality at 300 ppm was over 75%.

On to `CCS(C)=NC(=O)c1cc(C#N)cc(C)c1NC(=O)c1cc(Br)nn1-c1ncccc1Cl` (stereo not drawn) [I.3-61], for which the mortality at 300 ppm in test [2] (setting [11]) was over 75%.

`Cc1cc(Cl)cc(C(=O)N=S2(=O)CCCCC2)c1CC(=O)c1cc(Br)nn1-c1ccccc1Cl` [I.4-22, 2-{2-[5-Bromo-2-(2-chloro-phenyl)-2H-pyrazol-3-yl]-2-oxo-ethyl}-5-chloro-3-methyl-N-(1-oxo-hexahydro-1lambda*6*-thiopyran-1-ylidene)-benzamide]: the mortality at 2500 ppm in test [5], in test [8], in test [3] (setting [9]) and in test [4] was over 75% in each case. Besides, the mortality at 300 ppm in test [1] (setting [10]) and in test [2] (setting [11]) was over 75% in each case.
